Results as given in patent publication US10632192B2, “Pyrimidine compounds and their use as vaccine adjuvants” (Sumitomo Dainippon Pharma Co., Ltd., priority 2015, dated 2020).

Key:
C57BL/6 mouse [1] = test: OVA-specific IgG in plasma of mice immunized with OVA plus compound (ELISA); type: in vivo; conditions: intramuscular, equal volume mixture (100 μL/mouse) of OVA 1 mg/mL and compound 0.1 mg/mL, booster two weeks later, plasma one week after booster, vs negative control group, FIG. 1
Description: (§1) For the first immunization, an equal volume mixture (100 μL/mouse) of ovalbumin (OVA) (1 mg/mL) and a compound of the above Examples (0.1 mg/mL) was administered intramuscularly to gastrocnemius muscle of C57BL/6 mouse. Two weeks later, an equal amount of the same mixture was administered intramuscularly to the gastrocnemius muscle for booster immunization. One week after the booster immunization, cardiac blood was collected under isoflurane inhalation anesthesia, and plasma was collected by centrifugation. OVA-specific IgG value in plasma was measured by ELISA using mouse anti-ovalbumin IgG ELISA kit (Alpha Diagnostic) (See FIG. 1).

C57BL/6 mouse [2] = test: OVA-specific IgG1 and IgG2c in immunized mouse plasma (ELISA); type: in vivo; conditions: intramuscular OVA + compound, prime and booster, vs negative control group, FIG. 2
Description: as §1
Also, the OVA-specific IgG1 and IgG2c values in the immunized mouse plasma were determined by ELISA method. Specifically, OVA solution (SIGMA) was added to a 96-well plate, followed by blocking with 1% skim milk (Wako Pure Chemical Industries, Ltd.). A plasma sample, which was diluted with phosphate buffer, and then a secondary antibody (goat anti-mouse IgG1 (Jackson) or IgG2c (Southern Bio)) were added. SureBlue™ TMB microwell peroxidase substrate (KPL) was added, and the product of the enzyme reaction was measured by microplate reader (See FIG. 2).

spleen cells [3] = test: OVA-specific multifunctional CD4-positive T lymphocytes in spleen cells of immunized mice (flow cytometry); type: in vivo, mouse; conditions: spleen cells of mice of Test Example 1, cultured overnight with OVA and Brefeldin A; IFN-γ, IL-2, TNF-α staining; vs negative control group; FIG. 3
Description: as §1
The spleen cells were prepared from the mouse of Test Example 1. The cells were added with OVA and Brefeldin A (eBioscience) and cultured overnight. The cultured cells were harvested, stained with APC-labeled anti-mouse CD3e antibody, FITC-labeled anti-mouse CD4 antibody and Fixable Viability Dye Fluor® 450 (eBioscience), and fixed in Fixation/Permeabilization buffer (eBioscience). After treatment in Permeabilization buffer (eBioscience), the cells were stained with antibody cocktail PerCP-Cy5.5-labeled anti-IFN-γ antibody, PE-Cy7-labeled anti-IL-2 antibody, and PE-labeled TNF-α (eBioscience). Data acquisition and analysis were performed using FACS Cant II (BD Biosciences) and FLOWJO software (TreeStar).

spleen cells [4] = test: MHC-restricted OVA-specific CD8-positive T lymphocytes in spleen cells of immunized mice (tetramer staining); type: in vivo, mouse; conditions: spleen cells of mice of Test Example 1, H-2Kb OVA Tetramer-SINFEKL; vs negative control group; FIG. 4
Description: as §1
The spleen cells were also stained with eFluor 450-labeled anti-mouse CD3e antibody, Alexa Fluor® 647-labeled anti-mouse CD8 antibody, PE-labeled H-2Kb OVA Tetramer-SINFEKL (MBL) and Flexable Viability Dye eFluor 520 (eBioscience). Data acquisition and analysis were performed using FACS Cant II (BD Biosciences) and FLOWJO software (TreeStar).

spleen cells [5] = test: CD8-positive effector memory T lymphocytes in spleen cells of immunized mice (flow cytometry); type: in vivo, mouse; conditions: spleen cells of mice of Test Example 1, CD44/CD62L staining; vs negative control group; FIG. 5
Description: as §1
The spleen cells were further incubated with antibody cocktail eFluor450-labeled anti-mouse CD3e antibody, Alexa Fluor647-labeled anti-mouse CD8 antibody, PE-Cy7-labeled anti-mouse CD44 antibody, PerCP-Cy5.5-labeled anti-mouse CD62L antibody and Fixable Viability Dye520 (eBioscience). Data acquisition and analysis were performed using FACS Cant II (BD Biosciences) and FLOWJO software (TreeStar).

Compound	OVA-specific IgG production in plasma (C57BL/6 mouse [1])	ratio of OVA-specific IgG2c to IgG1 in plasma (C57BL/6 mouse [2])	proportion of OVA-specific multifunctional CD4-positive T lymphocytes (spleen cells [3])	proportion of MHC-restricted OVA-specific CD8-positive T lymphocytes (spleen cells [4])	proportion of CD8-positive effector memory T lymphocytes (spleen cells [5])
CCC[C@@H](CCO)Nc1nc(N)nc(C)c1Cc1ccc(CN(C)CCNC(=O)CC/C(C)=C/CC/C(C)=C/CC/C(C)=C/CC/C=C(\C)CC/C=C(\C)CCC=C(C)C)cc1 [Example 1, (4E,8E,12E,16E,20E)-N-{2-[{4-[(2-amino-4-{[(3S)-1-hydroxyhexan-3-yl]amino}-6-methylpyrimidin-5-yl)methyl]benzyl}(methyl)amino]ethyl}-4,8,12,17,21,25-hexamethylhexacosa-4,8,12,16,20,24-hexaenamide]	induced significant OVA-specific IgG production	significantly increased	significantly increased	significantly increased	significantly increased
CCC[C@@H](CO)Nc1nc(N)nc(C)c1Cc1ccc(C(=O)NCCNC(=O)CC/C(C)=C/CC/C(C)=C/CC/C(C)=C/CC/C=C(\C)CC/C=C(\C)CCC=C(C)C)cc1OC [Example 4, 4-[(2-amino-4-{[(25)-1-hydroxypentan-2-yl]amino}-6-methylpyrimidin-5-yl)methyl]-N-(2-{[(4E,8E,12E,16E,20E)-4,8,12,17,21,25-hexamethylhexacosa-4,8,12,16,20,24-hexaenoyl]amino}ethyl)-3-methoxybenzamide]	induced significant OVA-specific IgG production	significantly increased	significantly increased	significantly increased	significantly increased
